Measurements as given in the supplement of paper PMC5579334.

Tests used:
STS26T [1] = assay: relative IC50 (inflection point of fitted dose-response curve, CellTox-Green cytotoxicity, 72 h; top asymptote may be below 50%); higher = less potent
In short: (§1)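 MPNST cell lines and primary human Schwann cells were incubated 72 h at 37 °C in 384-well plates holding five 10-fold compound dilutions. CellTox-Green was added before seeding at a final 1:1000 dilution and reported fluorescence from DNA released by disrupted cells. Signals were scaled to vehicle and positive-control wells, and cultures failing plate quality control were dropped. Drug sensitivity score and relative IC50 come from four-parameter logistic fits, with IC50 censored at the top concentration.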

HSC2 [2] = assay: as above
In short: as §1

HSC1 [3] = assay: as above
In short: as §1

HS-PSS [4] = assay: as above
In short: as §1

S462 = assay: relative IC50 (inflection point of fitted dose-response curve, CellTiter-Glo viability, 72 h; top asymptote may be below 50% inhibition); higher = less potent
In short: (§2)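 MPNST cell lines and primary human Schwann cells (750–1000 cells per well) went into 384-well plates preprinted with each compound at five concentrations in 10-fold steps. Plates were incubated 72 h at 37 °C, 5% CO2. Viability was read as CellTiter-Glo ATP luminescence, scaled between vehicle and positive-control wells, with duplicates averaged where present. Percent inhibition is at the top concentration; drug sensitivity score and relative IC50 (censored at top concentration) come from four-parameter logistic fits.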

HS-Sch-2 = assay: as above
In short: as §2

YST-1 = assay: as above
In short: as §2

STS26T [5] = assay: as above
In short: as §2

ST8814 [6] = assay: as above
In short: as §2

HSC2 [7] = assay: as above
In short: as §2

S1507-2 = assay: as above
In short: as §2

HS-PSS [8] = assay: as above
In short: as §2

ST8814 [9] = assay: relative IC50 (inflection point of fitted dose-response curve, CellTox-Green cytotoxicity, 72 h; top asymptote may be below 50%); higher = less potent
In short: as §1

HSC1 [10] = assay: relative IC50 (inflection point of fitted dose-response curve, CellTiter-Glo viability, 72 h; top asymptote may be below 50% inhibition); higher = less potent
In short: as §2

Compound | relative IC50 (STS26T [1]) [nM] | relative IC50 (HSC2 [2]) [nM] | relative IC50 (HSC1 [3]) [nM] | relative IC50 (HS-PSS [4]) [nM] | relative IC50 (S462) [nM] | relative IC50 (HS-Sch-2) [nM] | relative IC50 (YST-1) [nM] | relative IC50 (STS26T [5]) [nM] | relative IC50 (ST8814 [6]) [nM] | relative IC50 (HSC2 [7]) [nM] | relative IC50 (S1507-2) [nM] | relative IC50 (HS-PSS [8]) [nM] | relative IC50 (ST8814 [9]) [nM] | relative IC50 (HSC1 [10]) [nM]
Nc1nc2[nH]cnc2c(=S)[nH]1 [Thioguanine] | 2920 | > 10000 | > 10000 | > 10000 | 1200 | 1120 | 1370 | 717 | 642 | > 10000 | 2270 | 1450 | – | –
Cc1cnc(NC(=O)Nc2cc(Br)c(C)cc2OC[C@@H]2CNCCO2)cn1 [Rabusertib] | 330 | > 1000 | – | > 1000 | 319 | 302 | 242 | 189 | > 1000 | – | 236 | – | > 1000 | –
O=C(c1ccc(OCCN2CCCCC2)cc1)c1c(-c2ccc(O)cc2)sc2cc(O)ccc12 [Raloxifene] | 3800 | > 10000 | > 10000 | – | – | 1810 | 1820 | 3280 | 2940 | 1840 | 3100 | 1130 | 3430 | 3100
CC(C)(C)Cn1c(N)nc2ccc(-c3[nH]c(C(C)(C)C)nc3-c3ccc(F)cc3)nc21 [Ralimetinib] | > 10000 | > 10000 | > 10000 | > 10000 | – | 3330 | 115 | 2920 | 1560 | 474 | 2140 | 4090 | > 10000 | 2330
Cc1cnc(Nc2ccc(F)cc2Cl)nc1-c1c[nH]c(C(=O)N[C@H](CO)c2cccc(Cl)c2)c1 [VX-11E] | 896 | 651 | 874 | > 2500 | – | 367 | > 2500 | 830 | 905 | 696 | 966 | 756 | 816 | 750
COc1cc(Nc2ncc(F)c(Nc3ccc4c(n3)NC(=O)C(C)(C)O4)n2)cc(OC)c1OC [Tamatinib] | – | – | > 10000 | > 10000 | > 10000 | – | > 10000 | – | – | 1590 | > 10000 | > 10000 | – | 665
Cc1ccc(-n2nc(C(C)(C)C)cc2NC(=O)Nc2ccc(OCCN3CCOCC3)c3ccccc23)cc1 [Doramapimod] | > 10000 | > 10000 | > 10000 | – | – | 2330 | 667 | > 10000 | > 10000 | 1760 | > 10000 | 1640 | > 10000 | 3010
C[C@]12CC[C@@H]3c4ccc(O)cc4C[C@@H](CCCCCCCCC[S+]([O-])CCCC(F)(F)C(F)(F)F)[C@H]3[C@@H]1CC[C@@H]2O (some centres not stated) [Fulvestrant] | > 1000 | > 1000 | > 1000 | > 1000 | > 1000 | > 1000 | > 1000 | > 1000 | > 1000 | – | > 1000 | – | > 1000 | –
Cc1ccc(NC(=O)c2ccc(CN3CCN(C)CC3)cc2)cc1Nc1nccc(-c2cccnc2)n1 [Imatinib] | > 10000 | > 10000 | > 10000 | – | – | 3190 | 1950 | – | 3530 | > 10000 | 1960 | 2380 | 3580 | > 10000
NC(=O)c1cccc2cn(-c3ccc(C4CCCNC4)cc3)nc12 (configuration not stated) [MK-4827] | – | > 10000 | > 10000 | – | 1400 | – | – | 1700 | 1650 | – | 1680 | – | 3040 | 2110
O=C(O)CC[C@H]1CC[C@@](c2cc(F)ccc2F)(S(=O)(=O)c2ccc(Cl)cc2)CC1 [MK-0752] | > 1000 | > 1000 | > 1000 | > 1000 | > 1000 | – | > 1000 | > 1000 | > 1000 | – | > 1000 | > 1000 | > 1000 | –
CNCc1ccc(-c2[nH]c3cc(F)cc4c3c2CCNC4=O)cc1 [Rucaparib] | > 10000 | > 10000 | > 10000 | > 10000 | – | – | 447 | > 10000 | > 10000 | > 10000 | > 10000 | 1040 | > 10000 | > 10000
CN(C)/N=N/c1[nH]cnc1C(N)=O [Dacarbazine] | > 10000 | > 10000 | > 10000 | > 10000 | – | > 10000 | > 10000 | – | > 10000 | > 10000 | > 10000 | > 10000 | > 10000 | > 10000
Cn1cnc(-c2cc3nccc(Oc4ccc(NC(=S)NC(=O)Cc5ccccc5)cc4F)c3s2)c1 [MGCD-265] | > 10000 | – | > 10000 | > 10000 | 2100 | 1730 | – | – | 439 | – | 501 | – | – | –
CN(C)C(=N)NC(=N)N [Metformin aq] | > 100000 | > 100000 | > 100000 | – | – | – | – | > 100000 | > 100000 | > 100000 | > 100000 | – | > 100000 | > 100000
Oc1nc(-c2ccc(C(F)(F)F)cc2)nc2c1CSCC2 [XAV-939] | – | > 10000 | > 10000 | > 10000 | > 10000 | > 10000 | – | – | > 10000 | 314 | 1580 | – | > 10000 | 286
COc1cc2c(NC3CCN(C(C)C)CC3)nc(C3CCCCC3)nc2cc1OCCCN1CCCC1 [UNC0638] | 3390 | > 10000 | – | 2540 | 2730 | 2270 | 2870 | 3500 | 2640 | – | 1720 | 1740 | 2230 | –
